Where “and” joins values, the source holds several entries; their conditions need not be identical. Identical values can stand only once. Like-named read-outs stand apart in the source and are kept apart here.
Tests used:
[1] = tested on: hMSC implanted in mouse calvarial defect; assay: hMSC survival in vivo, mouse calvarial defect model; conditions: 4 weeks after implantation of treated hMSC
[2] = tested on: TGFβ signaling in hMSC; assay: TGFβ signaling, qRT-PCR and western blot; type: cell-based, human; conditions: for effect on H-8 induced Smad2 and Akt phosphorylation: co-treatment with H-8
From the text: (C): Western blot analysis of p-Smad and p-Akt reveled that the enahcing effect of H-8 on osteoblast differentiation of hMSC is mediated through activation of non-canonical TGFβ signaling. (D): SB431542, a selective inhibitor of TGWU activity abolished the enhanced phosphorylation of Akt and smad2 after H-8 treatment.
To investigate the mechanisms of the enhancing effects of H-8 on osteoblast differentiation of hMSC, the present inventors performed a DNA microarray analysis of hMSC-TERT under osteogenic culture conditions, in the presence or absence of the H-8 (25 μM). […] In order to identify the pathway that is primarily regulated by H-8 treatment, phosphorylation of canonical and non-canonical TGFβ signaling components was evaluated 5 minutes and 15 minutes after H-8 treatment. The inventors also evaluated the effect of TGFβ3 treatment on H-8 induced phosphorylation of Smad2 and Akt. […] This observation further confirms that the enhancing effect of H-8 on osteoblast differentiation of hMSC is mediated through regulation of TGFβ signaling.

[3] = tested on: human CD14+ mononuclear cells; assay: Osteoclast formation, count of TRAP-positive multinucleated cells; type: cell-based; conditions: 25 μM, day 5 of differentiation
From the text: The present inventors determined the effects of H-8 on osteoclast formation in peripheral blood-derived human CD14+ mononuclear cell cultures.

[4] = tested on: osteoclast; conditions: table 1 of Soerensen et al; cited from earlier work
[5] = tested on: human adipose tissue derived MSC (hAT-MSC); assay: In vitro osteoblast differentiation (ALP activity, alizarin red); type: cell-based
[6] = target: T1, protein kinase G (PKG) (Homo sapiens, UniProt Q13976); conditions: cited from earlier work
T1 sequence (Q13976 1-671): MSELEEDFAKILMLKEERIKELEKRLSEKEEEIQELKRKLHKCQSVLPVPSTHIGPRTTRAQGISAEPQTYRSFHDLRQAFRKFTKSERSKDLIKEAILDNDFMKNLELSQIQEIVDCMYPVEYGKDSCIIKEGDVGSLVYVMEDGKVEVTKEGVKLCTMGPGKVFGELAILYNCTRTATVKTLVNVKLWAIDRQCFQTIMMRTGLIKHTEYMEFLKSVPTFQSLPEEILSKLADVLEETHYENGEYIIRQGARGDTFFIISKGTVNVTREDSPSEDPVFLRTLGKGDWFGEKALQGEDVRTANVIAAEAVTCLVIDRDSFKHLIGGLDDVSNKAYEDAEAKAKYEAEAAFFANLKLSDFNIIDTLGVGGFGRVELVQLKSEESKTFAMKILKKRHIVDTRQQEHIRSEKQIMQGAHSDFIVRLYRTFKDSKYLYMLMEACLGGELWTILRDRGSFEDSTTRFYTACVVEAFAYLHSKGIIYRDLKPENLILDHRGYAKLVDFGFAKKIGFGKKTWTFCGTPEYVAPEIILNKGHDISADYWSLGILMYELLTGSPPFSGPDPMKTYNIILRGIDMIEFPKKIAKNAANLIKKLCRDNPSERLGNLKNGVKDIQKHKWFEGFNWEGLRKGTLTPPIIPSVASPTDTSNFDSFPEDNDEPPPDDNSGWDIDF

[7] = tested on: hMSC-TERT implants in SCID/NOD mice; assay: In vivo heterotopic bone formation of hMSC-TERT implanted with HA/TCP
Method: (A) Treatment of hMSC-TERT4 with H-8 (25 μM) for 7 days in vitro enhanced the in vivo heterotopic bone formation ability of the cells. (B) Systemic injection of H-8 at 30 mg/kg/day enhanced the amount of the heterotopic bone formed by hMSC-TERT4 implanted in SCID/NOD mice. (C) Human specific Vimentin staining confirmed that the newly formed heterotopic bone is of human origin. *P≦0.05 (significant difference as compared to vehicle).
To determine the effect of H-8 treatment on the ability of hMSC to form heterotopic bone in vivo, hMSC-TERT were treated with H-8 (25 μM) or vehicle for 7 days, mixed with hydroxyapatite/tricalcium phosphate (HA/TCP) as osteoconductive carrier, and implanted subcutaneously in SCID/NOD mice. […] Human specific vimentin staining confirmed that the newly formed heterotopic bone is of human origin (FIG. 6C).

[8] = target: Myosin Light Chain Kinase (MLCK) (Homo sapiens, UniProt Q15746); conditions: cited from earlier work
Myosin Light Chain Kinase (MLCK), sequence (Q15746 whole entry): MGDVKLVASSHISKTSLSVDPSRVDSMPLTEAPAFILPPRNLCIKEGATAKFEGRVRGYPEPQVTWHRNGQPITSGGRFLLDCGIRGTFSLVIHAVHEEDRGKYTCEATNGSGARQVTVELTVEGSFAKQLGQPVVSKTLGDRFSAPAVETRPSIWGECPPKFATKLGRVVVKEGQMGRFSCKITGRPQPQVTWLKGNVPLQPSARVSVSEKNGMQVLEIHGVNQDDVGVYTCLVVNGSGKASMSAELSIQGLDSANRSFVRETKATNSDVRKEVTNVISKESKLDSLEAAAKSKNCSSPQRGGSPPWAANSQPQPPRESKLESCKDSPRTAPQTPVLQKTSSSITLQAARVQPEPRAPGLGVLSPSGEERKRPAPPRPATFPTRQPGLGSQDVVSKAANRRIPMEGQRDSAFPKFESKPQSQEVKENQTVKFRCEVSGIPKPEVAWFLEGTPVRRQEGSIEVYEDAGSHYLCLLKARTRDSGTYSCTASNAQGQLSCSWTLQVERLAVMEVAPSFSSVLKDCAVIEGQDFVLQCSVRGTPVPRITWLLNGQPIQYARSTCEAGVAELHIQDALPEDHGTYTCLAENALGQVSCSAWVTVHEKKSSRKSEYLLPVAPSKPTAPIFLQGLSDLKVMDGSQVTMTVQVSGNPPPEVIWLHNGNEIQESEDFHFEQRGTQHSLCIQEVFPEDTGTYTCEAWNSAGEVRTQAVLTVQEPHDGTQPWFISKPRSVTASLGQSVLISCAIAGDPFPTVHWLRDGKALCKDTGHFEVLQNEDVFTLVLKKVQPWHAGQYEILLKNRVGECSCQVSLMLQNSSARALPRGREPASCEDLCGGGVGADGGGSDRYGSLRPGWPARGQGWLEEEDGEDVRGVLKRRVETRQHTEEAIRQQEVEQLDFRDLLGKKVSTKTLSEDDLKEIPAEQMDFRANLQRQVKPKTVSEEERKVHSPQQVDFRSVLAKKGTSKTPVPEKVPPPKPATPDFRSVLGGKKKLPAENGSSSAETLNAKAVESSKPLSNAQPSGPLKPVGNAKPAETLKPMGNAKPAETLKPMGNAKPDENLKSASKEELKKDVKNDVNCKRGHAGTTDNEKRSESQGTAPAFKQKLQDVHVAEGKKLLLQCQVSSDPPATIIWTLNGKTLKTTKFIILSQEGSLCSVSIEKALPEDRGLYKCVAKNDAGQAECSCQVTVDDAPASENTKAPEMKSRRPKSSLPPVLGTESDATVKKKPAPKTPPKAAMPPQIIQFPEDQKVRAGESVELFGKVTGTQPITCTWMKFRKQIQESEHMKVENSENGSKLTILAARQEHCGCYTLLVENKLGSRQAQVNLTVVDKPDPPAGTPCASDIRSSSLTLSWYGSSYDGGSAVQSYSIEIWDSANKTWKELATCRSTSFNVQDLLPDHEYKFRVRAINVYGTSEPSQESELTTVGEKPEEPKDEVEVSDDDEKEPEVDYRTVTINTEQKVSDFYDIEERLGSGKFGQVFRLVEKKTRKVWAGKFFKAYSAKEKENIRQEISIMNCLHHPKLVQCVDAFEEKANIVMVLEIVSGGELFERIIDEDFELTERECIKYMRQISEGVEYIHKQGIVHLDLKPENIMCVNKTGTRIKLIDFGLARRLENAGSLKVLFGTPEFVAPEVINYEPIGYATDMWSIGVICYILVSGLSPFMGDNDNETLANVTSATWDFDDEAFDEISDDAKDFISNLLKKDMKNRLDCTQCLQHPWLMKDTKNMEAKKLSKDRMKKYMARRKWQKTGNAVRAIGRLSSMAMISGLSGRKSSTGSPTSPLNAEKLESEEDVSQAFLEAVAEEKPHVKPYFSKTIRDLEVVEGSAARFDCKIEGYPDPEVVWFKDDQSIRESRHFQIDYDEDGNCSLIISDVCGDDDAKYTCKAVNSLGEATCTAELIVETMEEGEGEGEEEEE

[9] = tested on: hMSC; assay: hMSC survival in vitro, western blot of activated Caspase-3; type: cell-based, human; conditions: 25 μM, during osteoblast differentiation
Method: A) H-8 treatment of hMSC (25 μM) during osteoblast differentiation, decreased apoptosis, as shown by western blot analysis of activated Caspase-3.
To investigate the effect of H-8 on hMSC survival in vitro, activation of Caspase-3 was evaluated, using western blot analysis.

[10] = tested on: primary human bone marrow derived MSC (hBMSC); assay: In vitro osteoblast differentiation in OIM (ALP activity, alizarin red); type: cell-based; conditions: dose range 1-30 μM
Method: (§1) F) H-8 enhances ALP activity of hMSC, in the absence of serum.
(§2) In order to confirm the results obtained from the initial screen, the present inventors incubated hMSC-TERT and primary human bone marrow derived MSC (hBMSC) in osteogenic induction medium (OIM) supplemented with H-8 (dose range 1-30 μM) or vehicle. […] To determine the stage of differentiation at which the effect of H-8 was most apparent, the present inventors added H-8 (25 μM) to the OIM at different time points during 12-days period.

[11] = Necropsy after systemic H-8 injection; type: in vivo; conditions: systemic injection 5, 15, 30 mg/kg/day for 4 weeks
[12] = tested on: hMSC-TERT
[13] = tested on: hMSC-TERT; assay: Adipocyte differentiation (Oil red O, qRT-PCR of adipogenic markers); type: cell-based, human; conditions: 25 μM in adipogenic induction media; Oil red O day 15, qRT-PCR day 10
Method: To determine the effect of H-8 on adipocyte differentiation of hMSC, H-8 was added (25 μM) to the adipogenic induction media (AIM) of hMSC-TERT.

[14] = target: protein kinase C(PKC); conditions: cited from earlier work
[15] = tested on: hMSC-TERT; assay: In vitro osteoblast differentiation in OIM (ALP activity, alizarin red, qRT-PCR); type: cell-based, human
Method: as §1
Adding H-8 (25 μM) to the osteogenic induction media, during 9-days in vitro hMSC osteogenic differentiation, enhanced expression of osteoblastic markers as shown by qRT-PCR analysis. **P≦0.05, ***P≦0.005 (significant difference as compared to vehicle).
H-8 was added (25 μM) to the OIM at different time points during 12-days period.
as §2

[16] = 5 and 15 minutes after treatment
[17] = 1 μM inhibitor in osteogenic inducing media, 6 days after induction, hMSC-TERT
[18] = 10 μM inhibitor in osteogenic inducing media, 6 days after induction, hMSC-TERT

Molecule: CNCCNS(=O)(=O)c1cccc2cnccc12 [H-8, N-[2-(methylamino)ethyl]-5-isoquinolinesulfonamide]
- hMSC survival in vivo (luminescent imaging) [1]: increased hMSC survival
- Akt phosphorylation (western blot) [2, 16]: enhanced Akt phosphorylation at both 5 and 15 minutes
- Smad2 phosphorylation (western blot) [2, 16]: enhanced Smad2 phosphorylation was detected only 15 minutes after H-8 treatment
- osteoclast formation (TRAP-positive multinucleated cells) [3]: did not affect osteoclast formation
- osteoclastic acid secretion [4]: no effect on osteoclastic acid secretion
- matrix mineralization (alizarin red staining) ([5]; 25 μM, day 10 of differentiation): enhanced matrix mineralization
- ALP activity ([5]; day 6 of osteoblastic differentiation): dose dependent enhancing effect
- IC50 [6]: 0.48 µM
- heterotopic bone formation, cells pre-treated in vitro ([7]; hMSC-TERT treated 25 μM for 7 days, implanted subcutaneously, histology after 8 weeks): enhanced amount of heterotopic bone formation
- heterotopic bone formation, systemic treatment ([7]; intraperitoneally 30 mg/kg/day for 4 weeks after implantation of HA/TCP-hMSC-TERT): increased amount of heterotopic bone formation
- IC50 [8]: 68 µM
- activated Caspase-3 (western blot), hMSC survival [9]: reduced level of activated Caspase-3
- ALP activity ([10]; day 6, dose-dependent): significantly increased
- matrix mineralization (alizarin red staining) ([10]; day 12, dose-dependent): significantly increased
- necropsy, toxic effects [11]: all tissues looked normal
- Relative ALP activity [12, 17]: 1.701
- Relative ALP activity [12, 18]: 1.87
- adipocyte differentiation of hMSC [13]: does not affect adipocyte differentiation
- IC50 [14]: 15 µM
- stage of differentiation at which H-8 is needed (matrix mineralization) ([15]; 25 μM added at different time points during 12-days period): needed during the first 9 days to exert its effects
- gene expression of osteogenic markers (qRT-PCR) ([15]; 25 μM, 9-days in vitro hMSC osteogenic differentiation): enhanced gene expression of early and late osteogenic markers
- ALP enhancing effect in serum free induction media ([15]; 25 μM, serum free induction media): persists in the absence of serum
- optimal concentration for highest enhancement of osteoblast differentiation of hMSC ([15]; based on in vitro studies): 20 to 30 µM
- dependence of ALP enhancing effect on differentiation inducers ([15]; each component of osteoblastic induction media removed): not dependent on differentiation inducers
- ALP activity ([15]; hMSC-TERT, OIM, dose range 1-30 μM, day 6, dose-dependent): significantly increased
- matrix mineralization (alizarin red staining) ([15]; hMSC-TERT, OIM, dose range 1-30 μM, day 12, dose-dependent): significantly increased

Molecule: NC(=O)c1ccc(-c2nc(-c3ccccn3)c(-c3ccc4c(c3)OCO4)[nH]2)cc1 [SB431542]
- effect on H-8 induced Smad2 and Akt phosphorylation [2]: abolished the enhancing effect of H-8 on Smad2 and Akt phosphorylation
- effect on H-8 enhanced osteoblast differentiation (ALP activity, matrix mineralization) ([15]; co-treatment with H-8, hMSC): blunted the enhancing effect of H-8 on osteoblast differentiation of hMSC

Molecule: Cc1cc2ncc(-c3ccccc3)nc2cc1C [Tyrphostin AG 1295]
- Relative ALP activity [12, 17]: 1.007
- Relative ALP activity [12, 18]: 0.3556

Molecule: COc1cc2ncnc(Nc3cccc(Cl)c3)c2cc1OC [Tyrphostin AG 1478]
- Relative ALP activity [12, 17]: 1.097
- Relative ALP activity [12, 18]: Toxic

Molecule: N#CC(=C(/N)Sc1ccccc1N)/C(C#N)=C(\N)Sc1ccccc1N [U-0126]
- Relative ALP activity [12]: 0.3485 and 0.281

Molecule: COC[C@H]1OC(=O)c2coc3c2[C@@]1(C)C1=C(C3=O)[C@@H]2CCC(=O)[C@@]2(C)C[C@H]1OC(C)=O [Wortmannin]
- Relative ALP activity [12, 17]: 0.8301
- Relative ALP activity [12, 18]: 0.9122

Molecule: C[C@@H](N)[C@H]1CC[C@H](C(=O)Nc2ccncc2)CC1 [Y-27632]
- Relative ALP activity [12, 17]: 0.9848
- Relative ALP activity [12, 18]: 0.4092

Molecule: Cc1ccc(NC(=O)c2cccc(N(C)C)c2)cc1NC(=O)c1ccc(O)cc1 [ZM 336372]
- Relative ALP activity [12, 17]: 0.869
- Relative ALP activity [12, 18]: 0.5373

Molecule: C=CC(=O)c1ccc2ccccc2c1 [ZM 449829]
- Relative ALP activity [12, 17]: 0.9444
- Relative ALP activity [12, 18]: 0.8946

Molecule: Cn1cnc2nc(NCCO)nc(NCc3ccccc3)c21 [iso-Olomoucine]
- Relative ALP activity [12, 17]: 1.084
- Relative ALP activity [12, 18]: 0.9318

Molecule: BML-265
- Relative ALP activity [12, 17]: 0.3954
- Relative ALP activity [12, 18]: Toxic

Molecule: Indirubin-3′-monoxime
- Relative ALP activity [12, 17]: 0.2589
- Relative ALP activity [12, 18]: 0.3697

B1: TGFβ3: Transforming growth factor β3, added to hMSC together with H-8 (protein, UniProt P10600 301-412, looked up)
Transforming growth factor …: ALDTNYCFRNLEENCCVRPLYIDFRQDLGWKWVHEPKGYYANFCSGPCPYLRSADTTHSTVLGLYNTLNPEASASPCCVPQDLEPLTILYYVGRTPKVEQLSNMVVKSCKCS
- effect on H-8 induced Smad2 and Akt phosphorylation [2]: enhancing effect on H-8 induced Akt and Smad2 phosphorylation

Reference: US9273006B2, “Anabolic compounds for treating and preventing bone loss diseases” (SYDDANSK UNIVERSITET, priority 2012, dated 2016)
